In article PMC10804683, “Identification of the pyridoxal 5′‐phosphate allosteric site in human pyridox(am)ine 5′‐phosphate oxidase” (Protein Science : A Publication of the Protein Society, 2024):
Numbering of substitutions follows the chain as printed. “Also recorded” adds a separate entry of the source.

Assays:
[1] = target: T1, human PNPO F48A/E50L/R161C/R258L variant (holo-enzyme) (Homo sapiens, UniProt Q9NVS9, E50L/F48A/R161C/R258L); assay: PLP binding by fluorescence, F48A/E50L/R161C/R258L (35% FMN-saturated); settings: text: titrated by exciting at 280 nm
T1 construct: a main form corresponding to the entire protein; made in house; host or cells: E. coli BL21(DE3)
T1 sequence (Q9NVS9 1-261 F48A/E50L/R161C/R258L): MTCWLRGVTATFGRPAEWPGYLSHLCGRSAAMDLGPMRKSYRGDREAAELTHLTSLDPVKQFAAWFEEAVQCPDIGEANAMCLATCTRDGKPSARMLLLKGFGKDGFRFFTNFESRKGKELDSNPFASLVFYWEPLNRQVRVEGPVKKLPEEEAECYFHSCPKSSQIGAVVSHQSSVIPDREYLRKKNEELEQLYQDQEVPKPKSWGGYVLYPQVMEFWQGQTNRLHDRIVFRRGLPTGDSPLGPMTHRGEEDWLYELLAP
Excerpt: (§1) PLP binding to PNPO can be detected and quantitatively measured using differential scanning fluorimetry (DSF) and also by measuring FMN fluorescence changes. We had previously attributed DSF changes to PLP binding at the active site, while FMN fluorescence changes were attributed to PLP binding at the allosteric site (Barile et al., [2019], [2020]). Previous experiments carried out with the PNPO R161C variant, affecting a residue that is essential for substrate binding and catalysis (and therefore also for PLP binding at the active site), confirms that DSF measurements only report PLP binding at the active site (Barile et al., [2021]; Table 1). […] We expected to observe no FMN fluorescence changes upon titration of the variants with PLP. However, this was not the case, and the dissociation constant values obtained by observing the FMN fluorescence emission were only up to threefold larger in the variants with respect to wild type PNPO (Figure 3). […] To check the second possibility, we measured intrinsic fluorescence changes of wild type and variant apo‐forms (i.e., without FMN) upon PLP titration. […]
(§2) Analyses of PLP binding, based on FMN fluorescence increase observed upon binding of PLP to PNPO, were performed as described in Barile et al. ([2020]). […] Emission spectra were recorded from […], with excitation and emission slits set at 3 and 5 nm, respectively. […]

[2] = target: T2, apo-PNPO F48A/E50L/R258L (Homo sapiens, UniProt Q9NVS9, E50L/F48A/R258L); assay: PLP binding by intrinsic fluorescence, apo triple variant; settings: excitation 280 nm, 100 nM enzyme
T2 construct: a main form corresponding to the entire protein; made in house; host or cells: E. coli BL21(DE3)
T2 sequence (Q9NVS9 1-261 F48A/E50L/R258L): T1 sequence (Q9NVS9 1-261 F48A/E50L/R161C/R258L) with C161R
Excerpt: as §1, §2

Cc1ncc(COP(=O)(O)O)c(C=O)c1O [PLP, pyridoxal 5′‐phosphate]
PLP binding KD^FLUO [1]: no variation in the emitted fluorescence was observed; also recorded: No binding
Apo-enzyme PLP binding KD^FLUO [2]: no change in fluorescence was observed; also recorded: No binding
